Reference: ChEMBL document CHEMBL1201862, “PubChem BioAssay data set” (2004)
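Step 1: Grow cells in 96-well plates. Step 2: Expose to compound for 48 hours at 5 concentrations. Step 3: Interpolate endpoints linearly; if unreached, use highest concentration. Here, GI50 denotes the concentration required for 50% inhibition of growth.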 Calls of active or inactive are those of the source. Rule as the data show it: active = GI50 up to about 1.1 µM and inactive = higher.

Key:
Experiment in all cases: NCI anticancer screen, dose series, 48 h
786-0 = tested on: 786-0
CAKI-1 = tested on: CAKI-1
CCRF-CEM = tested on: CCRF-CEM
HCT-116 = tested on: HCT-116
Hs-578T = tested on: Hs-578T
MOLT-4 = tested on: MOLT-4
NCI-H23 = tested on: NCI-H23
RPMI-8226 = tested on: RPMI-8226
SF-268 = tested on: SF-268
SK-MEL-28 = tested on: SK-MEL-28
SK-MEL-5 = tested on: SK-MEL-5
SK-OV-3 = tested on: SK-OV-3
SN12C = tested on: SN12C
SNB-19 = tested on: SNB-19
SR = tested on: SR
TK-10 = tested on: TK-10
UACC-62 = tested on: UACC-62
RXF 393 = tested on: RXF 393
UO-31 = tested on: UO-31
T47D = tested on: T47D

Measured: GI50

COc1ccccc1/C=C/c1ccnc2ccccc12
inactive: 786-0 14.3 µM | CAKI-1 14.6 µM | CCRF-CEM 14.2 µM | HCT-116 13.6 µM | Hs-578T 14.7 µM | MOLT-4 7.87 µM | NCI-H23 13.6 µM | RPMI-8226 8.49 µM | SF-268 14.2 µM | SK-MEL-28 17.4 µM | SK-MEL-5 13.5 µM | SK-OV-3 16 µM | SN12C 18.1 µM | SNB-19 14.3 µM | SR 12.8 µM | TK-10 16.8 µM | UACC-62 11.7 µM

CC(NC(=O)c1ccccc1)C(=O)N(Cc1ccccc1)Cc1ccccc1 (centres undefined)
inactive: 786-0 37.6 µM | CAKI-1 34.9 µM | CCRF-CEM 21.6 µM | HCT-116 25.2 µM | MOLT-4 14.1 µM | NCI-H23 24.5 µM | RPMI-8226 21 µM | RXF 393 26.5 µM | SF-268 35.4 µM | SK-MEL-28 25.7 µM | SK-MEL-5 22.5 µM | SK-OV-3 33.7 µM | SN12C 37.4 µM | SNB-19 36.1 µM | SR 29.9 µM | TK-10 60.1 µM | UACC-62 16.4 µM | UO-31 27.5 µM

C#CCN(N=O)C(=O)NCCCCC(NC(C)=O)C(=O)NCc1ccccc1 (centres undefined)
inactive: 786-0 > 100 µM | CAKI-1 > 100 µM | CCRF-CEM 28.4 µM | HCT-116 > 100 µM | MOLT-4 28.4 µM | NCI-H23 > 100 µM | RPMI-8226 51.2 µM | RXF 393 > 100 µM | SF-268 > 100 µM | SK-MEL-28 > 100 µM | SK-MEL-5 > 100 µM | SK-OV-3 > 100 µM | SN12C > 100 µM | SNB-19 > 100 µM | SR 53 µM | TK-10 > 100 µM | UACC-62 > 100 µM | UO-31 > 100 µM

NC(=S)N/N=C(\Cc1nc2ccc(Cl)cc2nc1O)C(=O)Nc1ccc(Cl)cc1
inactive: 786-0 > 100 µM | CAKI-1 > 100 µM | CCRF-CEM > 100 µM | HCT-116 > 100 µM | Hs-578T > 100 µM | MOLT-4 > 100 µM | NCI-H23 > 100 µM | RXF 393 > 100 µM | SF-268 > 100 µM | SK-MEL-28 > 100 µM | SK-MEL-5 > 100 µM | SK-OV-3 > 100 µM | SN12C > 100 µM | SNB-19 > 100 µM | TK-10 > 100 µM | UACC-62 > 100 µM | UO-31 40 µM

Cc1cc2[nH]c3c(C#N)c(-c4ccccc4)c(/N=N/c4cccc(C(F)(F)F)c4)c(=O)n3c2cc1C
inactive: 786-0 35.8 µM | CAKI-1 32 µM | CCRF-CEM 5.3 µM | HCT-116 13.7 µM | NCI-H23 14.6 µM | RPMI-8226 5.35 µM | RXF 393 54.5 µM | SF-268 32.6 µM | SK-MEL-28 39 µM | SK-MEL-5 15.7 µM | SK-OV-3 32.4 µM | SN12C 27.9 µM | SNB-19 35.2 µM | T47D 20.3 µM | TK-10 50.4 µM | UO-31 31.3 µM

CCc1cccc(C)c1NC(=S)NC(=O)c1ccccc1C(=O)NC(=S)Nc1c(C)cccc1CC
inactive: 786-0 > 100 µM | CAKI-1 56.2 µM | CCRF-CEM 36.3 µM | HCT-116 71.4 µM | MOLT-4 53.7 µM | NCI-H23 35.6 µM | RPMI-8226 60 µM | RXF 393 > 100 µM | SF-268 > 100 µM | SK-MEL-28 > 100 µM | SK-MEL-5 > 100 µM | SK-OV-3 > 100 µM | SN12C > 100 µM | SNB-19 > 100 µM | SR 38.4 µM | TK-10 > 100 µM | UACC-62 37.7 µM | UO-31 > 100 µM

O=c1c2cc([N+](=O)[O-])ccc2[nH]n1Cc1ccccn1
inactive: 786-0 > 100 µM | CAKI-1 > 100 µM | CCRF-CEM > 100 µM | HCT-116 > 100 µM | Hs-578T > 100 µM | MOLT-4 > 100 µM | NCI-H23 > 100 µM | RPMI-8226 > 100 µM | RXF 393 > 100 µM | SF-268 > 100 µM | SK-MEL-28 > 100 µM | SK-MEL-5 > 100 µM | SN12C > 100 µM | SNB-19 > 100 µM | SR > 100 µM | TK-10 > 100 µM | UACC-62 > 100 µM | UO-31 > 100 µM

Cc1ccc(S(=O)(=O)/N=C(\NN)Nc2ccc(Cl)cc2)cc1
inactive: 786-0 > 100 µM | CAKI-1 > 100 µM | CCRF-CEM > 100 µM | HCT-116 > 100 µM | MOLT-4 > 100 µM | NCI-H23 > 100 µM | RPMI-8226 > 100 µM | RXF 393 60.7 µM | SK-MEL-28 > 100 µM | SK-MEL-5 > 100 µM | SK-OV-3 > 100 µM | SN12C > 100 µM | SNB-19 > 100 µM | SR 83.9 µM | T47D 88.3 µM | TK-10 > 100 µM | UACC-62 > 100 µM | UO-31 > 100 µM

CC(=O)c1cccc(Nc2nc3ccccc3c3occc23)c1
inactive: 786-0 16.7 µM | CAKI-1 32.8 µM | CCRF-CEM > 100 µM | HCT-116 18.2 µM | MOLT-4 > 100 µM | NCI-H23 16.7 µM | RPMI-8226 > 100 µM | RXF 393 10.8 µM | SF-268 22.2 µM | SK-MEL-28 27.3 µM | SK-MEL-5 12.7 µM | SK-OV-3 17.8 µM | SN12C 13.2 µM | SNB-19 20.2 µM | SR 47 µM | T47D 21 µM | TK-10 15 µM

CCCCN(CCCC)C1(c2cc3ccccc3s2)CCCCC1.[O-][Cl+3]([O-])([O-])O
inactive: 786-0 13.7 µM | CAKI-1 18.7 µM | CCRF-CEM 12.1 µM | HCT-116 10.8 µM | MOLT-4 13.6 µM | NCI-H23 15.5 µM | RXF 393 16.6 µM | SF-268 19.2 µM | SK-MEL-28 18.4 µM | SK-MEL-5 18.7 µM | SK-OV-3 20.4 µM | SN12C 21.4 µM | SNB-19 18.7 µM | SR 16.3 µM | T47D 16.2 µM | TK-10 17.3 µM | UACC-62 15.6 µM | UO-31 18.6 µM

CC(=O)c1ccccc1NCC(=O)Nn1cnc2ccc(S(=O)(=O)Nc3ccccc3C(C)=O)cc2c1=O
inactive: 786-0 > 100 µM | CAKI-1 > 100 µM | CCRF-CEM > 100 µM | HCT-116 > 100 µM | Hs-578T 33.7 µM | MOLT-4 > 100 µM | NCI-H23 > 100 µM | RPMI-8226 > 100 µM | SF-268 > 100 µM | SK-MEL-28 > 100 µM | SK-OV-3 > 100 µM | SN12C > 100 µM | SNB-19 > 100 µM | SR > 100 µM | TK-10 > 100 µM | UACC-62 > 100 µM | UO-31 > 100 µM

CC(=O)O[C@H]1C(=O)[C@@]2(C)[C@H]([C@H](OC(=O)c3ccccc3)[C@]3(O)C[C@H](OC(=O)[C@H](O)[C@@H](NC(=O)c4ccc(N(C)C)cc4)c4ccccc4)C(C)=C1C3(C)C)[C@]1(OC(C)=O)CO[C@@H]1C[C@@H]2O
active: 786-0 < 0.005 µM | CAKI-1 0.339 µM | CCRF-CEM < 0.005 µM | HCT-116 < 0.005 µM | Hs-578T < 0.005 µM | MOLT-4 0.00631 µM | NCI-H23 0.00849 µM | RPMI-8226 < 0.005 µM | RXF 393 0.00887 µM | SK-MEL-5 < 0.005 µM | SK-OV-3 0.0262 µM | SN12C < 0.005 µM | SNB-19 < 0.005 µM | SR < 0.005 µM | TK-10 0.0723 µM | UACC-62 < 0.005 µM
inactive: SK-MEL-28 > 50 µM | UO-31 1.54 µM

CC(C)[Si](OCC1CC(C#N)OC(C)(C)O1)(C(C)C)C(C)C (centres undefined)
inactive: 786-0 18.8 µM | CAKI-1 27.6 µM | CCRF-CEM 19.5 µM | HCT-116 16.5 µM | MOLT-4 19.6 µM | NCI-H23 19.3 µM | RPMI-8226 14.2 µM | RXF 393 17.1 µM | SF-268 26.9 µM | SK-MEL-28 39.4 µM | SK-MEL-5 15.5 µM | SK-OV-3 21.3 µM | SN12C 32.4 µM | SNB-19 22 µM | SR 18.1 µM | TK-10 39.5 µM | UACC-62 30.1 µM | UO-31 20.7 µM

COc1c(O)c(OC)c2oc(-c3ccc(O)c(O)c3)c(OC)c(=O)c2c1O
inactive: 786-0 15 µM | CAKI-1 26.9 µM | CCRF-CEM 23.9 µM | HCT-116 31.2 µM | MOLT-4 28.4 µM | NCI-H23 32.7 µM | RPMI-8226 31.8 µM | SF-268 3.52 µM | SK-MEL-28 18.7 µM | SK-MEL-5 11.8 µM | SK-OV-3 15.9 µM | SN12C 56.9 µM | SNB-19 53.8 µM | SR 28.7 µM | T47D 3.28 µM | TK-10 30.5 µM | UACC-62 7.52 µM | UO-31 28.1 µM

COc1ccc(NCc2cc(OC)cc(OC)c2)cc1
inactive: 786-0 48.1 µM | CAKI-1 9.75 µM | CCRF-CEM 25.2 µM | HCT-116 15.6 µM | MOLT-4 17.1 µM | NCI-H23 26.3 µM | RPMI-8226 17 µM | RXF 393 13.7 µM | SF-268 26 µM | SK-MEL-28 24.5 µM | SK-MEL-5 9.91 µM | SK-OV-3 30.1 µM | SN12C 36.1 µM | SNB-19 > 68.4 µM | SR 13.1 µM | TK-10 50.7 µM | UACC-62 9.48 µM | UO-31 35.9 µM
